From US20060041144A1 (priority 2002, published 2006)

How the values were obtained:
Phytophthora infestans = assay type: in vivo; details: tomato (variety: Ponterosa), flowable diluted to 200 ppm, foliar spray before inoculation, observed after 1 day at 23° C. plus 4 days in green house; Test Example 2
Plasmopara viticola = assay: Preventive foliar spray test on grape inoculated with Plasmopara viticola zoosporangia (Test Examples 3 and 4); assay type: in vivo; details: grape (variety: Berry A), flowable diluted to 200 ppm, foliar spray before inoculation, observed after 1 day at 23° C. plus 6 days in green house; Test Example 4
Method: Additionally, the control effect was evaluated by visually observing the area of a lesion on a sample plant in investigation and comparing the area of a lesion on a non-treatment plant and the area of a lesion on a treated plant with the compound of the present invention.
Sand loam was compacted in a plastic pot, and a grape (variety: Berry A) was seeded and grown in a green house for 40 days. The compounds of the present invention (I-1), (I-2), (I-6) to (I-12), (II-1), (III-1) and (IV-1) were formulated to flowable according to Formulation Example 6, then, diluted with water to provide given concentration of 200 ppm, and these diluted solutions were sprayed onto stems and leaves so as to give sufficient adhesion on the surface of grape leaves. After spraying, the liquid on the stem was air-dried, and a suspension of zoosporangiua of Plasmopara viticola (about 10,000 zoosporangiua were contained in 1 ml of the suspension) was inoculated by spraying. The amount of the sprayed suspension was about 2 ml for one plant. After inoculation, the plant was first grown for one day at 23° C. under 90% or more humidity, then further grown for 6 days in the green house, which was 24° C. in daytime and 20° C. in night-time.
Then, the areas of a lesion of the plants were obserbed. […]

## COc1ccc(-c2ncccc2NC(=O)C(=C(Cl)Cl)c2ccc(Cl)cc2)cc1OC [I-11, N-(2-(3,4-dimethoxyphenyl)-pyridine-3-yl)-2-(chlorophenyl)-3,3-dichloroacrylamide]
Phytophthora infestans
  lesion area on treated plants relative to the lesion area on a non-treatment plant: not more than 10%

## COc1ccc(-c2ncccc2NC(=O)C(O)c2ccc(C)cc2)cc1OC (stereo not drawn) [I-4, N-{2-(3,4-dimethoxyphenyl)pyridine-3-yl}-2-hydroxy-2-(4-methylphenyl)acetamide]
Plasmopara viticola
  lesion area on treated plants relative to the lesion area on a non-treatment plant: not more than 10%

## C#CCOC(C(=O)Nc1cccnc1-c1ccc(OC)c(OC)c1)c1ccc(Cl)cc1 (stereo not drawn) [I-1, N-(2-(3,4-dimethoxyphenyl)pyridine-3-yl)-2-(2-propynyloxy)-2-(4-chlorophenyl)acetamide]
other
  melting point: 125.2 °C
